Assay results taken from patent US12661410B2, “Compounds for targeted degradation of RET” (C4 Therapeutics, Inc., priority 2020, dated 2026).
Substitutions are numbered along the chain they refer to. Like-named read-outs stand apart in the source and are kept apart here.

Legend:
RET(KD: 658-1114 G810R) = target: T1, RET(KD: 658-1114 G810R) (Homo sapiens, UniProt P07949, G810R); assay: HiBiT-Degradation, RET G810R degradation assay (Nano-Glo HiBiT Lytic), 293T.165 cells; assay type: cell-based; conditions: for Emax / DC50: 6.0 hours
T1 construct: 658-1114; expressed in transfected cells; host or cells: 293T.165 (293T cells, generated in-house)
T1 sequence (P07949 658-1114 G810R): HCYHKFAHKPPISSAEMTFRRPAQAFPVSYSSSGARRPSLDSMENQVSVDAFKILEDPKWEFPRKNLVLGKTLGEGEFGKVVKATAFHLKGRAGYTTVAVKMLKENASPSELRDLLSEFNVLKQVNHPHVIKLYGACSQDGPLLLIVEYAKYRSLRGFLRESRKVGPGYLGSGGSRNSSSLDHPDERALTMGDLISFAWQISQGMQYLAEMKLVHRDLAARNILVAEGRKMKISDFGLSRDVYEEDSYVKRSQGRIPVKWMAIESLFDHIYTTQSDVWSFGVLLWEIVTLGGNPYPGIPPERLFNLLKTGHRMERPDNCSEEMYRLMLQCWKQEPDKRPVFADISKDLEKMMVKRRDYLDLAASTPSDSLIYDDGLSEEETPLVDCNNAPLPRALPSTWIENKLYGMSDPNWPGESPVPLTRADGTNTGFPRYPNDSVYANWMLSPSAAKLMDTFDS
Procedure, shortened: (§1)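 Luminescence readout of HiBiT-tagged RET kinase domain remaining after 6 h compound exposure. Cells: 293T.144 (wild type) or 293T.165 (G810R), 11 half-log doses up to 10 μM, duplicates. DC50 and Emax as % remaining protein taken from curve fits.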

RET (658-1114) = target: T2, RET (658-1114) (Homo sapiens, UniProt P07949); assay: HiBiT-Degradation, RET wild-type degradation assay (Nano-Glo HiBiT Lytic), 293T.144 cells; assay type: cell-based; conditions: for Emax / DC50: 6.0 hours
T2 construct: 658-1114; expressed in transfected cells; host or cells: 293T.144 (293T cells, generated in-house)
T2 sequence (P07949 658-1114): T1 sequence (P07949 658-1114 G810R) with R153G
Procedure, shortened: as §1

[1] = % remaining protein, read-out: 293T.165 RET(KD: 658-1114 G810R) 6.0 hours (Emax)
[2] = half-maximal degradation concentration, read-out: 293T.165 RET(KD: 658-1114 G810R) 6.0 hours (DC50)
[3] = % remaining protein, read-out: 293T.144 RET (658-1114) 6.0 hours (Emax)
[4] = half-maximal degradation concentration, read-out: 293T.144 RET (658-1114) 6.0 hours (DC50)
[5] = HiBiT-Degradation, read-out: 293T.165 RET(KD: 658-1114 G810R) 6.0 hours (DC50)
[6] = HiBiT-Degradation, read-out: 293T.144 RET (658-1114) 6.0 hours (DC50)
[7] = HiBiT-Degradation, read-out: 293T.144 RET (658-1114) 6.0 hours (Emax)
[8] = RET G810R, read-out: HiBiT-Degradation 293T.165 RET(KD: 658-1114 G810R) 6.0 hours (DC50)
[9] = RET G810R, read-out: HiBiT-Degradation 293T.165 RET(KD: 658-1114 G810R) 6.0 hours (Emax)
[10] = RET wild-type, read-out: HiBiT-Degradation 293T.144 RET (658-1114) 6.0 hours (DC50)
[11] = RET wild-type, read-out: HiBiT-Degradation 293T.144 RET (658-1114) 6.0 hours (Emax)

Row | SMILES | 293T.165 RET(KD: 658-1114 G810R) 6.0 hours (IP) [nM] (RET(KD: 658-1114 G810R)) | Emax (RET(KD: 658-1114 G810R); [1]) [%] | DC50 (RET(KD: 658-1114 G810R); [2]) [nM] | 293T.144 RET (658-1114) 6.0 hours (IP) [nM] (RET (658-1114)) | Emax (RET (658-1114); [3]) [%] | DC50 (RET (658-1114); [4]) [nM] | 293T.165 RET(KD: 658-1114 G810R) 6.0 hours (Emax) (RET(KD: 658-1114 G810R); HiBiT-Degradation) | 293T.165 RET(KD: 658-1114 G810R) 6.0 hours (IP) [nM] (RET(KD: 658-1114 G810R); HiBiT-Degradation) | DC50 (RET(KD: 658-1114 G810R); [5]) [nM] | 293T.144 RET (658-1114) 6.0 hours (IP) [nM] (RET (658-1114); HiBiT-Degradation) | DC50 (RET (658-1114); [6]) [nM] | Emax (RET (658-1114); [7]) [%] | HiBiT-Degradation 293T.165 RET(KD: 658-1114 G810R) 6.0 hours (IP) [nM] (RET(KD: 658-1114 G810R); RET G810R) | DC50 (RET(KD: 658-1114 G810R); [8]) [nM] | Emax (RET(KD: 658-1114 G810R); [9]) [%] | HiBiT-Degradation 293T.144 RET (658-1114) 6.0 hours (IP) [nM] (RET (658-1114); RET wild-type) | DC50 (RET (658-1114); [10]) [nM] | Emax (RET (658-1114); [11]) [%]
1 | CCC1(C(=O)NC(C)C)CCN(c2ccc(-c3nc(-c4cnn(C5CCN(C(=O)Cc6ccc(-c7ccc(NC8CCC(=O)NC8=O)cc7F)cc6)CC5)c4)cn4ncc(C#N)c34)cn2)CC1 (centres unmarked) [Compound 89, 1-[5-[3-cyano-6-[1-[1-[2-[4-[4-[(2,6-dioxo-3-piperidyl)amino]-2-fluoro-phenyl]phenyl]acetyl]-4-piperidyl]pyrazol-4-yl]pyrazolo[1,5-a]pyrazin-4-yl]-2-pyridyl]-4-ethyl-N-isopropyl-piperidine-4-carboxamide] | ++++ (<50 nM = ++++) | < 50 | < 100 | ++++ (<50 nM = ++++) | < 30 | < 50 |  |  |  |  |  |  |  |  |  |  |  | 
2 | CCC1(C(=O)NC(C)C)CCN(c2ccc(-c3nc(-c4cnn(C5CC6(C5)CN(C(=O)CC5(O)CCN(c7ccc(NC8CCC(=O)NC8=O)cc7F)CC5)C6)c4)cn4ncc(C#N)c34)cn2)CC1 (centres unmarked) [Compound 183, 1-[5-[3-cyano-6-[1-[2-[2-[1-[4-[(2,6-dioxo-3-piperidyl)amino]-2-fluoro-phenyl]-4-hydroxy-4-piperidyl]acetyl]-2-azaspiro[3.3]heptan-6-yl]pyrazol-4-yl]pyrazolo[1,5-a]pyrazin-4-yl]-2-pyridyl]-4-ethyl-N-isopropyl-piperidine-4-carboxamide] | ++++ (<50 nM = ++++) | < 30 | < 50 | ++++ (<50 nM = ++++) | < 30 | < 50 |  |  |  |  |  |  |  |  |  |  |  | 
3 | CCC1(C(=O)NC(C)C)CCN(c2ccc(-c3nc(-c4cnn(C5CCN(C(=O)CC6(O)CCN(c7ccc(NC8CCC(=O)NC8=O)cc7C(F)F)CC6)CC5)c4)cn4ncc(C#N)c34)cn2)CC1 (centres unmarked) [Compound 96, 1-[5-[3-cyano-6-[1-[1-[2-[1-[2-(difluoromethyl)-4-[(2,6-dioxo-3-piperidyl)amino]phenyl]-4-hydroxy-4-piperidyl]acetyl]-4-piperidyl]pyrazol-4-yl]pyrazolo[1,5-a]pyrazin-4-yl]-2-pyridyl]-4-ethyl-N-isopropyl-piperidine-4-carboxamide] | +++ (<100 nM = +++) | < 50 | < 100 | ++++ (<50 nM = ++++) | < 30 | < 50 |  |  |  |  |  |  |  |  |  |  |  | 
4 | N#Cc1cnn2cc(-c3cnn(C4CCN(C(=O)CN5CCC(c6ccc(NC7CCC(=O)NC7=O)cc6F)CC5)CC4)c3)cc(-c3ccc(N4CCN(C(=O)Cc5ccc(F)cn5)CC4)nc3)c12 (centres unmarked) [Compound 5, 6-[1-[1-[2-[4-[4-[(2,6-dioxo-3-piperidyl)amino]-2-fluoro-phenyl]-1-piperidyl]acetyl]-4-piperidyl]pyrazol-4-yl]-4-[6-[4-[2-(5-fluoro-2-pyridyl)acetyl]piperazin-1-yl]-3-pyridyl]pyrazolo[1,5-a]pyridine-3-carbonitrile] |  | < 30 | < 50 |  |  |  | ++++ (< 30% = ++++) | ++++ (< 50 nM = ++++) | < 50 | ++++ (< 50 nM = ++++) | < 50 | < 30 |  |  |  |  |  | 
5 | CCC1(C(=O)NC2CCC2)CCN(c2ccc(-c3nc(-c4cnn([C@H]5CC[C@H](N6CCC(c7ccc(N[C@H]8CCC(=O)NC8=O)cc7)CC6)CC5)c4)cn4ncc(C#N)c34)cn2)CC1 (single isomer, unassigned) [Compound 127] | ++++ (<50 nM = ++++) | < 30 | < 50 | ++++ (<50 nM = ++++) | < 30 | < 50 |  |  |  |  |  |  |  |  |  |  |  | 
6 | N#Cc1cnn2cc(-c3ccc(N4CCN(C(=O)CN5CCC(c6ccc(NC7CCC(=O)NC7=O)cc6)CC5)CC4)cc3)cc(-c3ccc(N4CCN(CCc5ccccn5)CC4)nc3)c12 (centres unmarked) [Compound 18, 6-(4-(4-(2-(4-(4-((2,6-Dioxopiperidin-3-yl)amino)phenyl)piperidin-1-yl)acetyl)piperazin-1-yl)phenyl)-4-(6-(4-(2-(pyridin-2-yl)ethyl)piperazin-1-yl)pyridin-3-yl)pyrazolo[1,5-a]pyridine-3-carbonitrile] |  | < 30 | < 100 |  |  |  | ++++ (< 30% = ++++) | ++++ (< 50 nM = ++++) | < 100 | ++++ (< 50 nM = ++++) | < 50 | < 30 |  |  |  |  |  | 
7 | CCC1(C(=O)NC(C)C)CCN(c2ncc(-c3nc(-c4cnn(C5CCN(C(=O)CC6(O)CCN(c7ccc(NC8CCC(=O)NC8=O)cc7Cl)CC6)CC5)c4)cn4ncc(C#N)c34)cc2F)CC1 (centres unmarked) [Compound 120, 1-[5-[6-[1-[1-[2-[1-[2-chloro-4-[(2,6-dioxo-3-piperidyl)amino]phenyl]-4-hydroxy-4-piperidyl]acetyl]-4-piperidyl]pyrazol-4-yl]-3-cyano-pyrazolo[1,5-a]pyrazin-4-yl]-3-fluoro-2-pyridyl]-4-ethyl-N-isopropyl-piperidine-4-carboxamide] | ++++ (<50 nM = ++++) | < 50 | < 100 | ++++ (<50 nM = ++++) | < 30 | < 50 |  |  |  |  |  |  |  |  |  |  |  | 
8 | CCC1(C(=O)NC2CCC2)CCN(c2ccc(-c3nc(-c4cnn(C5CCN(C(=O)CC6(O)CCN(c7ccc(NC8CCC(=O)NC8=O)cc7F)CC6)CC5)c4)cn4ncc(C#N)c34)cn2)CC1 (centres unmarked) [Compound 81, 1-[5-[3-cyano-6-[1-[1-[2-[1-[4-[(2,6-dioxo-3-piperidyl)amino]-2-fluoro-phenyl]-4-hydroxy-4-piperidyl]acetyl]-4-piperidyl]pyrazol-4-yl]pyrazolo[1,5-a]pyrazin-4-yl]-2-pyridyl]-N-cyclobutyl-4-ethyl-piperidine-4-carboxamide] |  | < 30 | < 50 |  |  |  |  |  |  |  |  |  | ++++ (< 50 nM = ++++) | < 50 | < 30 | ++++ (< 50 nM = ++++) | < 50 | < 30
9 | CCC1(C(=O)NC(C)C)CCN(c2ccc(-c3nc(-c4cnn(CC5CCN(C(=O)CC6(O)CCN(c7ccc(NC8CCC(=O)NC8=O)cc7F)CC6)CC5)c4)cn4ncc(C#N)c34)cn2)CC1 (centres unmarked) [Compound 84, 1-[5-[3-cyano-6-[1-[[1-[2-[1-[4-[(2,6-dioxo-3-piperidyl)amino]-2-fluoro-phenyl]-4-hydroxy-4-piperidyl]acetyl]-4-piperidyl]methyl]pyrazol-4-yl]pyrazolo[1,5-a]pyrazin-4-yl]-2-pyridyl]-4-ethyl-N-isopropyl-piperidine-4-carboxamide] |  | < 30 | < 100 |  |  |  |  |  |  |  |  |  | ++++ (< 50 nM = ++++) | < 100 | < 30 | ++++ (< 50 nM = ++++) | < 50 | < 30
10 | N#Cc1cnn2cc(-c3cnn([C@H]4CC[C@H](N5CCN(c6ccc(N[C@H]7CCC(=O)NC7=O)cc6F)CC5)CC4)c3)nc(-c3ccc(N4CC5COCC(C4)N5Cc4ccccn4)nc3)c12 (single isomer, unassigned) [Compound 155] | ++++ (<50 nM = ++++) | < 30 | < 50 | ++++ (<50 nM = ++++) | < 30 | < 50 |  |  |  |  |  |  |  |  |  |  |  | 
